Data as given in patent US20070089847A1, “Anti-microbial paper products having a substituted 1,2-dihydroquinoline” (Novus International, Inc., priority 2005, published 2007).

Key:
Type in all cases: cell-based
[1] = test system: Aspergillus niger ATCC 9642, Aspergillus flavus ATCC 9643, and Chaetomium globosum ATCC 6205; test: ASTM D 2020 fungal resistance test of five biocides on treated glass fiber filter paper (Example 1); conditions: for Observed Fungal Growth after 14 Days incubation at 28° C., 1: replicate 1; for Observed Fungal Growth after 14 Days incubation at 28° C., 2: replicate 2; for Observed Fungal Growth after 14 Days incubation at 28° C., 3: replicate 3
Description: (§1) Five different biocides at varying concentrations were tested for fungal resistance using the ASTM D 2020 Standard Test Method for Mildew (Fungus) Resistance of Paper and Paperboard protocol. This test method was designed for the qualitative determination of mildew (fungus) resistance of paper and paperboard, particularly those types that have been given a fungus resistant treatment. Specific test conditions applied to this project are described below, but at all times the ASTM D 2020 test protocol was strictly followed.
All five biocides (Santoquin®, HMTBA-Cu, BIOX-AUSD, Tox-Guard*Dry, and Metasol-TK 100) were tested at three different concentrations (200, 400, and 600 ppm). Santoquin®, HMTBA-Cu, and BIOX-AUSD were diluted in dimethyl sulfoxide (DMSO), while Tox-Guard*Dry and Metasol-TK100 were diluted in water. DMSO was used a control diluent. The fungal inoculum was comprised of three different species: Aspergillus niger ATCC 9642, Aspergillus flavus ATCC 9643, and Chaetomium globosum ATCC 6205.
(§2) Glass fiber filter paper was treated with the individual test biocides at the respective concentrations listed in Table 1 and allowed to dry overnight. The filter paper carriers, tested in triplicate, were placed in Petri dishes on mineral salts agar and inoculated with the fungal inoculum. The samples were incubated at 28° C. for 2 weeks and examined daily during the first week of incubation for the growth of the test organisms.
(§3) If no growth was observed on a sample after the first week of incubation, the sample was incubated for an additional seven days. […] If, after two weeks, there was no detectable growth of test organisms, the sample was considered fungus resistant.

[2] = test system: Aspergillus niger ATCC 9642 and Aspergillus flavus ATCC 9643; test: In vitro disk assay of antifungal properties, agar plates containing test agent (Example 3); conditions: 48 hours at 25° C.
Description: In this assay, paper disks were soaked in a fungal solution and placed on the surface of agar plates containing different concentration of the test agent. The radius of fungal growth radiating from each disk was considered indicative of the degree of inhibition by the agent relative to a control.
The test agents were diluted in DMSO or water and tested at several different concentrations. The test agents were added to the agar solution after sterilization, but prior to solidification. […] The plates were incubated for 48 hours at 25° C. The zones of fungal growth (or no growth) were analyzed and the minimum total inhibitory concentration (%) was estimated for each agent.

[3] = test system: Aspergillus niger ATCC 9642, Aspergillus flavus ATCC 9643, and Chaetomium globosum ATCC 6205; test: ASTM D 2020 fungal resistance test of Santoquin with Kathon 893 as control biocide (Example 2); conditions: for Observed Fungal Growth after 14 Days incubation at 28° C.: replicates 1-3
Description: as §1, with “One biocide sample, labeled Santoquin® was” for “Five different biocides at varying concentrations were”
The Santoquin® biocide was diluted with DMSO and tested at two different concentrations: 0.1% and 1.0%. The biocide Kathon 893 was diluted to 0.1% and 1.0% in water and used as a control biocide. DMSO was used as a control diluent. The fungal inoculum was comprised of three different species: Aspergillus niger ATCC 9642, Aspergillus flavus ATCC 9643, and Chaetomium globosum ATCC 6205.
as §2, with “two different” for “the individual test biocides at the respective”, “(0.1% and 1.0%) of Santoquin®” for “listed in Table 1”
as §3

[4] = all three concentrations (200, 400, and 600 ppm)
[5] = both concentrations (0.1% and 1.0%)

With `CSCCC(O)C(=O)[O-].CSCCC(O)C(=O)[O-].[Cu+2]` (stereo not drawn) [Mintrex Cu, Cu(HMTBA)2] the “Observed Fungal Growth after 14 Days incubation at 28° C., 1” value (“Observed Fungal Growth … at 28° C., 1” below) ([1]; 200 ppm) was “Growth”, the “Observed Fungal Growth after 14 Days incubation at 28° C., 2” value (shortened to “Observed Fungal Growth … at 28° C., 2”) ([1]; 200 ppm) was “Growth” and the “Observed Fungal Growth after 14 Days incubation at 28° C., 3” value (“Observed Fungal Growth … 3” for short) ([1]; 200 ppm) was “Growth”. For the same compound, the “Observed Fungal Growth … at 28° C., 1” value ([1]; 400 ppm) was “Growth”, the “Observed Fungal Growth … at 28° C., 2” value ([1]; 400 ppm) was “Growth” and the “Observed Fungal Growth … 3” value ([1]; 400 ppm) was “Growth”. The “Observed Fungal Growth … at 28° C., 1” value ([1]; 600 ppm) was “Growth”, the “Observed Fungal Growth … at 28° C., 2” value ([1]; 600 ppm) was “Growth” and the “Observed Fungal Growth … 3” value ([1]; 600 ppm) was “Growth”. For the same compound, the “fungal growth at the end of the two weeks” value [1, 4] was “fungal growth”, the “fungal resistance classification in the ASTM D 2020 test” value (from here on “fungal resistance classification”) [1, 4] was “fungus non-resistant” and the “Minimum Total Inhibitory Concentration (%)” value [2] was 0.5%.

`CCOc1ccc2c(c1)C(C)=CC(C)(C)N2` [Santoquin, 6-ethoxy-1,2-dihydro-2,2,4-trimethylquinoline] was tested, and the “Observed Fungal Growth after 14 Days incubation at 28° C.” value ([3]; 0.1%) was “No growth”, the “Observed Fungal Growth after 14 Days incubation at 28° C.” value ([3]; 1.0%) was “No growth” and the “fungal growth at the end of the two weeks” value [3, 5] was “no fungal growth”. For the same compound, the “fungal resistance classification” value [3, 5] was “fungal resistant”, the “fungal growth at the end of two weeks” value ([1]; 200 ppm) was “fungal growth” and the “fungal resistance classification” value ([1]; 200 ppm) was “fungus non-resistant”. The “Observed Fungal Growth … at 28° C., 1” value ([1]; 200 ppm) was “Growth”, the “Observed Fungal Growth … at 28° C., 2” value ([1]; 200 ppm) was “Growth” and the “Observed Fungal Growth … 3” value ([1]; 200 ppm) was “Growth”. For the same compound, the “fungal growth at the end of two weeks” value ([1]; 400 and 600 ppm) was “no fungal growth”, the “fungal resistance classification” value ([1]; 400 and 600 ppm) was “fungal resistant” and the “Observed Fungal Growth … at 28° C., 1” value ([1]; 400 ppm) was “No Growth”. The “Observed Fungal Growth … at 28° C., 2” value ([1]; 400 ppm) was “No Growth”, the “Observed Fungal Growth … 3” value ([1]; 400 ppm) was “No Growth” and the “Observed Fungal Growth … at 28° C., 1” value ([1]; 600 ppm) was “No Growth”. The “Observed Fungal Growth … at 28° C., 2” value ([1]; 600 ppm) was “No Growth”, the “Observed Fungal Growth … 3” value ([1]; 600 ppm) was “No Growth” and the “Minimum Total Inhibitory Concentration (%)” value [2] was over 0.5%.
